From patent US10538555B2, “Macrocyclic inhibitors of the PD-1/PD-L1 and CD80(B7-1)/PD-L1 protein/protein interactions” (BRISTOL-MYERS SQUIBB COMPANY, priority 2014, dated 2020) come the findings set out here.

Molecules are shown by their SMILES. *1 amine or outer side, *2 acyl side, *3 side chain or, on linkers, in order; H or OH if unused. Where a SMILES comes first, the peptide text is derived from it. Bridges are numbered along the chain shown (N, C = ends). [ ]: non-standard residue; d: D form. ξ: configuration not given here. X10 = CC(C)C[C@H](CC(=O)[C@H](Cc1cnc[nH]1)N[*:1])C(=O)[*:2]; Trp(1-CH2COOH) = N[C@@H](Cc1cn(CC(=O)O)c2ccccc12)C(=O)O; Phe(3,4,5-F3) = N[C@@H](Cc1cc(F)c(F)c(F)c1)C(=O)O; NMePhe(4-Me) = CN[C@@H](Cc1ccc(C)cc1)C(=O)O; Pro(trans-4-F) = O=C(O)[C@@H]1C[C@@H](F)CN1; NMePhe(4-F) = CN[C@@H](Cc1ccc(F)cc1)C(=O)O; Phe(4-F) = N[C@@H](Cc1ccc(F)cc1)C(=O)O; Phe(4-Me) = Cc1ccc(C[C@H](N)C(=O)O)cc1; d(cisHyp) = O=C(O)[C@H]1C[C@@H](O)CN1; Hyp = O=C(O)[C@@H]1C[C@@H](O)CN1; NMeF = CN[C@@H](Cc1ccccc1)C(=O)O; NMeL = CN[C@@H](CC(C)C)C(=O)O; NMeNle = CCCC[C@H](NC)C(=O)O; Pip = O=C(O)[C@@H]1CCCCN1; dPip = O=C(O)[C@H]1CCCCN1; hSer = N[C@@H](CCO)C(=O)O; NMeA = CN[C@@H](C)C(=O)O; Orn = NCCC[C@H](N)C(=O)O; dThz = O=C(O)[C@H]1CSCN1; Dab = NCC[C@H](N)C(=O)O; ξC = NC(CS)C(=O)O

This assay deals with T1, Human PD-L1/PD-1 (Homo sapiens, UniProt Q9NZQ7).
T1 construct: TVMV protease cleavage site (C); made in house; host or cells: HEK293T cells
T1 sequence (Q9NZQ7 with tags, fused parts or gaps): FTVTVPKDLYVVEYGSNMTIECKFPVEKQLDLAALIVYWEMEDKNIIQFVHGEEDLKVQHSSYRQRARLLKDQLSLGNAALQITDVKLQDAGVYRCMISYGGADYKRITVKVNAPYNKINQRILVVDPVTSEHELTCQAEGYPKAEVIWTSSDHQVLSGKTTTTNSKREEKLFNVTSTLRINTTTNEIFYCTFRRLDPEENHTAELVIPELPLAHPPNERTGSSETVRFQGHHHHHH
The assay can be described thus: HTRF Human PD-L1/PD-1 binding assay (PD-1-Ig/PD-L1-His). Particulars: PD-L1-His 10 nM, PD-1-Ig 20 nM; class symbol; read-out: HTRF Human PD-L1/PD-1 Binding Assay IC50 Range. Put shortly: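 Step 1: compound with PD-L1-His (10 nM final), 15 min. Step 2: PD-1-Ig (20 nM final), 15 min. Step 3: Eu-cryptate anti-Ig (1 nM) plus APC anti-His (20 nM), 30 min equilibration. Signal taken as 665 nm/620 nm ratio.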
Background: Time-resolved FRET reads energy transfer from a long-lived donor to a nearby acceptor.

As for `CCCC[C@H]1C(=O)N2C[C@H](O)C[C@@H]2C(=O)N[C@@H](CC(=O)O)C(=O)N[C@@H](C(C)C)C(=O)N(C)[C@@H](Cc2ccccc2)C(=O)N[C@@H](CCC(=O)O)C(=O)N2CSC[C@@H]2C(=O)N[C@@H](Cc2c[nH]c3ccccc23)C(=O)N[C@@H](Cc2ccc(O)cc2)C(=O)N[C@@H](CCO)C(=O)N[C@H](C(=O)NCC(N)=O)CSCC(=O)N[C@@H](Cc2cc(F)c(F)c(F)c2)C(=O)N(C)[C@@H](Cc2ccccc2)C(=O)N1C` [Example 10150] ({CH2CO}-[Phe(3,4,5-F3)][NMeF][NMeNle][d(cisHyp)]DV[NMeF]E[dThz]WY[hSer]CG-NH2; thioether N-13), the IC50 was in the range of 1 to 9.9 nM.

In the case of `CCCC[C@H]1C(=O)N2CCC[C@@H]2C(=O)N[C@@H](CC(=O)O)C(=O)N[C@@H](C(C)C)C(=O)N(C)[C@@H](CC(C)C)C(=O)N[C@@H](Cc2ccc(O)cc2)C(=O)N2CCC[C@@H]2C(=O)N[C@@H](Cc2c[nH]c3ccccc23)C(=O)N[C@@H](Cc2ccc(O)cc2)C(=O)N[C@@H](CCCN)C(=O)N[C@H](C(=O)NCC(N)=O)CSCC(=O)N[C@@H](Cc2ccc(F)cc2)C(=O)N(C)[C@@H](Cc2ccccc2)C(=O)N1C` [Example 9251] ({CH2CO}-[Phe(4-F)][NMeF][NMeNle][dP]DV[NMeL]Y[dP]WY[Orn]CG-NH2; thioether N-13), the IC50 lay in the range of 100 to 990 nM.

For the compound `CCCC[C@H]1C(=O)N2C[C@H](O)C[C@@H]2C(=O)N[C@@H](CC(=O)O)C(=O)N[C@@H](C(C)C)C(=O)N(C)[C@@H](Cc2ccccc2)C(=O)N[C@@H](CCC(N)=O)C(=O)N2C[C@H](O)C[C@@H]2C(=O)N[C@@H](Cc2c[nH]c3ccccc23)C(=O)N[C@@H](Cc2ccc(O)cc2)C(=O)N[C@@H](CCCCN)C(=O)N[C@H](C(=O)NCC(N)=O)CSCC(=O)N[C@@H](Cc2cc(F)c(F)c(F)c2)C(=O)N(C)[C@@H](Cc2ccccc2)C(=O)N1C` [Example 9353] ({CH2CO}-[Phe(3,4,5-F3)][NMeF][NMeNle][d(cisHyp)]DV[NMeF]Q[d(cisHyp)]WYKCG-NH2; thioether N-13), the IC50 was 1 to 9.9 nM.

As to `CCCC[C@H]1C(=O)N2CCC[C@@H]2C(=O)N[C@@H](CCN)C(=O)N[C@@H](C(C)C)C(=O)N(C)[C@@H](Cc2ccccc2)C(=O)N[C@@H](CC(=O)O)C(=O)N2CCCC[C@@H]2C(=O)N[C@@H](Cc2c[nH]c3ccccc23)C(=O)N[C@@H](Cc2ccc(O)cc2)C(=O)N[C@@H](CC(C)C)C(=O)N[C@H](C(=O)NCC(N)=O)CSCC(=O)N[C@@H](Cc2cc(F)c(F)c(F)c2)C(=O)N(C)[C@@H](Cc2ccc(F)cc2)C(=O)N1C` [Example 10581] ({CH2CO}-[Phe(3,4,5-F3)][NMePhe(4-F)][NMeNle][dP][Dab]V[NMeF]D[dPip]WYLCG-NH2; thioether N-13), the IC50 is 10 to 99.9 nM.

For `CCCC[C@H]1C(=O)N(C)[C@@H](CCCC)C(=O)N[C@@H](CCCN)C(=O)N[C@H](C(=O)NCC(N)=O)CSCC(=O)N[C@@H](Cc2ccc(O)cc2)C(=O)N2CCCC[C@H]2C(=O)N[C@@H](CC(=O)O)C(=O)N2CCC[C@H]2C(=O)N[C@@H](Cc2c[nH]cn2)C(=O)N[C@@H](CCC(=O)O)C(=O)N2C[C@H](O)C[C@H]2C(=O)N[C@@H](Cc2c[nH]c3ccccc23)C(=O)N[C@@H](CO)C(=O)N[C@@H](Cc2c[nH]c3ccccc23)C(=O)N1C` [Example 1536] ({CH2CO}-Y[Pip]DPHE[Hyp]WSW[NMeNle][NMeNle][Orn]CG-NH2; thioether N-14), the IC50 was 10 to 99.9 nM.

On to `CCCC[C@H]1C(=O)N2CCC[C@@H]2C(=O)N[C@@H](CC(=O)O)C(=O)N[C@@H](C(C)C)C(=O)N(C)[C@@H](Cc2ccc(C)cc2)C(=O)N[C@@H](CCCN)C(=O)N2CCC[C@@H]2C(=O)N[C@@H](Cc2c[nH]c3ccccc23)C(=O)N[C@@H](Cc2ccc(O)cc2)C(=O)N[C@@H](CC(C)C)C(=O)N[C@H](C(=O)NCC(N)=O)CSCC(=O)N[C@@H](Cc2ccc(F)cc2)C(=O)N(C)[C@@H](Cc2ccccc2)C(=O)N1C` [Example 10112] ({CH2CO}-[Phe(4-F)][NMeF][NMeNle][dP]DV[NMePhe(4-Me)][Orn][dP]WYLCG-NH2; thioether N-13), for which the IC50 lay within 100 to 990 nM.

`CCCC[C@H]1C(=O)N(C)[C@@H](CCCC)C(=O)N[C@@H](CC(C)C)C(=O)N[C@H](C(=O)NCC(N)=O)CSCC(=O)N[C@@H](Cc2ccc(O)cc2)C(=O)N(C)[C@@H](C)C(=O)N[C@@H](CC(=O)O)C(=O)N2CCC[C@H]2C(=O)N[C@@H](Cc2cnc[nH]2)C(=O)N[C@@H](CCCCN)C(=O)N2C[C@H](O)C[C@H]2C(=O)N[C@@H](Cc2c[nH]c3ccccc23)C(=O)N[C@@H](CCCCN)C(=O)N[C@@H](Cc2cn(CC(=O)O)c3ccccc23)C(=O)N1C` [Example 6156] ({CH2CO}-Y[NMeA]DPHK[Hyp]WK[Trp(1-CH2COOH)][NMeNle][NMeNle]LCG-NH2; thioether N-14): the IC50 fell in the range of 1 to 9.9 nM.

Consider `CCCC[C@H]1C(=O)N(C)[C@@H](CCCC)C(=O)N[C@@H](CCCN)C(=O)N[C@H](C(=O)NCC(N)=O)CSCC(=O)N[C@@H](Cc2ccc(O)cc2)C(=O)N2CCNC[C@H]2C(=O)N[C@@H](CC(N)=O)C(=O)N2CCC[C@H]2C(=O)N[C@@H](Cc2c[nH]cn2)C(=O)N[C@@H](CC(C)C)C(=O)N2C[C@H](O)C[C@H]2C(=O)N[C@@H](Cc2c[nH]c3ccccc23)C(=O)N[C@@H](CO)C(=O)N[C@@H](Cc2c[nH]c3ccccc23)C(=O)N1C` [Example 1535], for which the IC50 fell in the range of 10 to 99.9 nM.

With `CCCC[C@H]1C(=O)N(C)[C@@H](CCCC)C(=O)N[C@@H](CCCNC(=N)N)C(=O)N[C@H](C(=O)NCC(N)=O)CSCC(=O)N[C@@H](Cc2ccc(C)cc2)C(=O)N(C)[C@@H](C)C(=O)N[C@@H](CC(N)=O)C(=O)N2CCC[C@H]2C(=O)N[C@@H](Cc2cnc[nH]2)C(=O)C[C@@H](CC(C)C)C(=O)N2C[C@H](O)C[C@H]2C(=O)N[C@@H](Cc2c[nH]c3ccccc23)C(=O)N[C@@H](CO)C(=O)N[C@@H](Cc2c[nH]c3ccccc23)C(=O)N1C` [Example 7071] ({CH2CO}-[Phe(4-Me)][NMeA]NP[X10][Hyp]WSW[NMeNle][NMeNle]RCG-NH2; thioether N-13), the IC50 lay in the range of 1 to 9.9 nM.

Turning to `CCCC[C@H]1C(=O)N(C)[C@@H](CCCC)C(=O)N[C@@H](CCCNC(=N)N)C(=O)NC(C(=O)NCC(N)=O)CSCC(=O)N[C@@H](Cc2ccc(O)cc2)C(=O)N(C)[C@@H](C)C(=O)N[C@@H](CC(N)=O)C(=O)N2CCC[C@H]2C(=O)N[C@@H](CC(N)=O)C(=O)N[C@@H](CC(C)C)C(=O)N2CCC[C@H]2C(=O)N[C@@H](Cc2c[nH]c3ccccc23)C(=O)N[C@@H](CCO)C(=O)N[C@@H](Cc2c[nH]c3ccccc23)C(=O)N1C` (stereo partly drawn) [Example 9128] ({CH2CO}-Y[NMeA]NPNLPW[hSer]W[NMeNle][NMeNle]R[ξC]G-NH2; thioether N-14), the IC50 was in the range of 1 to 9.9 nM.

In the case of `CCCC[C@H]1C(=O)N2CCC[C@@H]2C(=O)N[C@@H](CCC(=O)O)C(=O)N[C@@H](C(C)C)C(=O)N(C)[C@@H](Cc2ccccc2)C(=O)N[C@@H](CCC(=O)O)C(=O)N2CCCC[C@@H]2C(=O)N[C@@H](Cc2c[nH]c3ccccc23)C(=O)N[C@@H](Cc2ccc(O)cc2)C(=O)N[C@@H](CC(C)C)C(=O)N[C@H](C(=O)NCC(N)=O)CSCC(=O)N[C@@H](Cc2cc(F)c(F)c(F)c2)C(=O)N(C)[C@@H](Cc2ccc(F)cc2)C(=O)N1C` [Example 10576] ({CH2CO}-[Phe(3,4,5-F3)][NMePhe(4-F)][NMeNle][dP]EV[NMeF]E[dPip]WYLCG-NH2; thioether N-13), the IC50 was 1 to 9.9 nM.

`CCCC[C@H]1C(=O)N[C@@H](CCC(N)=O)C(=O)N2CCCC[C@@H]2C(=O)N[C@@H](Cc2c[nH]c3ccccc23)C(=O)N[C@@H](Cc2ccc(O)cc2)C(=O)N[C@@H](CCCN)C(=O)N[C@H](C(=O)NCC(N)=O)CSCC(=O)N[C@@H](Cc2ccc(F)cc2)C(=O)N(C)[C@@H](Cc2ccccc2)C(=O)N(C)[C@@H](CCCC)C(=O)N2CCC[C@@H]2C(=O)N[C@@H](CC(=O)O)C(=O)N[C@@H](C(C)C)C(=O)N1C` [Example 9218] ({CH2CO}-[Phe(4-F)][NMeF][NMeNle][dP]DV[NMeNle]Q[dPip]WY[Orn]CG-NH2; thioether N-13): the IC50 fell in the range of 10 to 99.9 nM.

Regarding `CCCC[C@H]1C(=O)N(C)[C@@H](CCCC)C(=O)N[C@@H](CCC(=O)O)C(=O)N[C@H](C(=O)NCC(N)=O)CSCC(=O)N[C@@H](Cc2ccc(O)cc2)C(=O)N(C)[C@@H](C)C(=O)N[C@@H](CC(N)=O)C(=O)N2CCC[C@H]2C(=O)N[C@@H](Cc2cnc[nH]2)C(=O)N[C@@H](CCCN)C(=O)N2C[C@H](O)C[C@H]2C(=O)N[C@@H](Cc2c[nH]c3ccccc23)C(=O)N[C@@H](CCCCN)C(=O)N[C@@H](Cc2cn(CC(=O)O)c3ccccc23)C(=O)N1C` [Example 6267] ({CH2CO}-Y[NMeA]NPH[Orn][Hyp]WK[Trp(1-CH2COOH)][NMeNle][NMeNle]ECG-NH2; thioether N-14), the IC50 is 1 to 9.9 nM.

With `CCCC[C@H]1C(=O)N(C)[C@@H](CCCC)C(=O)N[C@@H](CCC(=O)O)C(=O)N[C@H](C(=O)NCC(N)=O)CSCC(=O)N[C@@H](Cc2ccc(OC)cc2)C(=O)N(C)[C@@H](C)C(=O)N[C@@H](CC(=O)O)C(=O)N2CCC[C@H]2C(=O)N[C@@H](Cc2cnc[nH]2)C(=O)N[C@@H](CCCCN)C(=O)N2C[C@H](O)C[C@H]2C(=O)N[C@@H](Cc2c[nH]c3ccccc23)C(=O)N[C@@H](CCN)C(=O)N[C@@H](Cc2c[nH]c3ccccc23)C(=O)N1C` [Example 7119] ({CH2CO}-Y(Me)[NMeA]DPHK[Hyp]W[Dab]W[NMeNle][NMeNle]ECG-NH2; thioether N-14), the IC50 was 1 to 9.9 nM.

As to `CCCC[C@H]1C(=O)N(C)[C@@H](CCCC)C(=O)N[C@@H](CCCN)C(=O)N[C@H](C(=O)NCC(N)=O)CSCC(=O)N[C@@H](Cc2ccc(OC)cc2)C(=O)N(C)[C@@H](C)C(=O)N[C@@H](CC(N)=O)C(=O)N2CCC[C@H]2C(=O)N[C@@H](CC(N)=O)C(=O)N[C@@H](CC(C)C)C(=O)N2C[C@H](F)C[C@H]2C(=O)N[C@@H](Cc2c[nH]c3ccccc23)C(=O)N[C@@H](C)C(=O)N[C@@H](Cc2c[nH]c3ccccc23)C(=O)N1C` [Example 7084] ({CH2CO}-Y(Me)[NMeA]NPNL[Pro(trans-4-F)]WAW[NMeNle][NMeNle][Orn]CG-NH2; thioether N-14), the IC50 is 1 to 9.9 nM.
